The target in assay [1] is T1, M-phase inducer phosphatase 2 (Homo sapiens) (UniProt P30305).
T1 sequence (whole entry): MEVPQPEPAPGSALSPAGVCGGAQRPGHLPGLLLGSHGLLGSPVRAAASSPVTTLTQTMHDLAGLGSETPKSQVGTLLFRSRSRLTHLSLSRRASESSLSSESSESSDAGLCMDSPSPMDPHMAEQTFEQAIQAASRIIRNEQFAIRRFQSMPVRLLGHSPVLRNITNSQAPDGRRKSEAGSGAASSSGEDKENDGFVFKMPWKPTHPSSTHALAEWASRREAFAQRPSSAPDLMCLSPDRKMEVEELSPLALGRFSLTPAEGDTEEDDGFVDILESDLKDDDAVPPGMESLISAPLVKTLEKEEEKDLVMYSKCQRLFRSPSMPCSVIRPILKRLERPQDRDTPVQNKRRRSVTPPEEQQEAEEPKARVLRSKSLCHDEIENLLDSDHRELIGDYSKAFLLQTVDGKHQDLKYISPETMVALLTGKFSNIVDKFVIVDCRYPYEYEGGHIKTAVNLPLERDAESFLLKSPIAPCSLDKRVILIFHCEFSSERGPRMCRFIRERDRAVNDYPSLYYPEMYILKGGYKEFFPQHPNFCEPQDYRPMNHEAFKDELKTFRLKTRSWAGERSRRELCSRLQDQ
The assay can be described thus: Inhibitory activity against Cell division cycle 25B at 100 uM.

Assay [2] addresses T2, M-phase inducer phosphatase 2 (Homo sapiens, UniProt P30305).
T2 sequence (P30305 whole entry): T1 sequence (whole entry)
Put plainly: Compound was measured for its inhibitory activity against Cell division cycle 25B.

Each structure is given as a SMILES string. pIC50: −log10 of the molar value.

Compound `COc1cccc(COc2c(I)cc3c(c2I)CN(C(=O)/C=C/c2cccc(F)c2)[C@H](C(=O)O)C3)c1` yielded an inhibition in assay [1] of 41%. On the same count and under the same terms, the result for `C/C(=C\c1ccccc1)C(=O)N1Cc2c(cc(I)c(OCCCCl)c2I)C[C@H]1C(=O)O` reads 12%; that for `COc1cccc(COc2c(I)cc3c(c2I)CN(C(=O)/C=C/c2ccccc2F)[C@H](C(=O)O)C3)c1`, 34%. Still for that read-out and setting: the result for `C/C(=C\c1ccccc1)C(=O)N1Cc2c(cc(I)c(OCC(=O)OCc3ccccc3)c2I)C[C@H]1C(=O)O` reads 24%; that for `N#C/C(=C\c1ccccc1)C(=O)N1Cc2c(cc(I)c(O)c2I)C[C@H]1C(=O)O`, 12%.

As for `COc1cccc(COc2c(I)cc3c(c2I)CN(C(=O)/C=C/c2cc(OC)c(OC)c(OC)c2)[C@H](C(=O)O)C3)c1`, the inhibition in assay [1] was 25%. On the same count and under the same terms, the result for `O=C(O)[C@@H]1Cc2cc(I)c(OCc3ccc(Cl)cc3Cl)c(I)c2CN1C(=O)/C=C/c1ccccc1F` reads 32%; that for `COc1cccc(COc2c(I)cc3c(c2I)CN(C(=O)/C=C/c2ccccc2C(F)(F)F)[C@H](C(=O)O)C3)c1`, 28%. Still for that read-out and setting: then `N#C/C(=C\c1ccccc1)C(=O)N1Cc2c(cc(I)c(OCC(=O)OCc3ccccc3)c2I)C[C@H]1C(=O)O`, with 36%. In assay [2], `O=C(O)[C@@H]1Cc2cc(I)c(OCc3ccc(Cl)cc3Cl)c(I)c2CN1C(=O)c1cccnc1Cl` had a pIC50 of under 4.00.

In assay [2], `O=C(O)[C@@H]1Cc2cc(I)c(OCc3ccc(Cl)cc3Cl)c(I)c2CN1C(=O)/C=C/c1ccc([N+](=O)[O-])cc1` showed a pIC50 of 4.35.

Compound `O=C(O)[C@@H]1Cc2cc(I)c(OCc3cccc(C(F)(F)F)c3)c(I)c2CN1C(=O)c1cccnc1Cl` gave a pIC50 in assay [2] of 4.52. With `O=C(COc1c(I)cc2c(c1I)CN(C(=O)/C=C/c1cccc(Br)c1)[C@H](C(=O)O)C2)OCc1ccccc1`, the pIC50 in assay [2] is 4.05.

In assay [2], `O=C(O)[C@@H]1Cc2cc(I)c(OCc3ccc(Cl)cc3Cl)c(I)c2CN1C(=O)/C=C/c1ccc(Cl)cc1` had a pIC50 of 4.46.

`C/C(=C\c1ccccc1)C(=O)N1Cc2c(cc(I)c(OCc3ccc(Cl)cc3Cl)c2I)C[C@H]1C(=O)O` had a pIC50 in assay [2] of 4.40. Regarding `O=C(O)[C@@H]1Cc2cc(I)c(OCCCCl)c(I)c2CN1C(=O)/C=C/c1ccccc1Br`, the pIC50 in assay [2] was 4.48. The same measure, in the same setting: the result for `O=C(O)[C@@H]1Cc2cc(I)c(OCc3ccc(C(F)(F)F)cc3)c(I)c2CN1C(=O)/C=C/c1ccc([N+](=O)[O-])cc1` reads 4.26; that for `Cc1ccc(/C=C/C(=O)N2Cc3c(cc(I)c(OCc4ccc(C(F)(F)F)cc4)c3I)C[C@H]2C(=O)O)cc1`, 4.46.

For the compound `O=C(O)[C@@H]1Cc2cc(I)c(OCc3ccccc3F)c(I)c2CN1C(=O)CCc1ccccc1`, the pIC50 in assay [2] was 4.10.

In assay [2], `Cc1ccc(/C=C/C(=O)N2Cc3c(cc(I)c(OCc4ccc(Cl)cc4Cl)c3I)C[C@H]2C(=O)O)cc1` had a pIC50 of 4.57.

Compound `O=C(O)[C@@H]1Cc2cc(I)c(OCc3ccc(C(F)(F)F)cc3)c(I)c2CN1C(=O)/C=C/c1cccc(F)c1` had a pIC50 in assay [2] of 4.52. `O=C(O)[C@@H]1Cc2cc(I)c(OCc3cccc(C(F)(F)F)c3)c(I)c2CN1C(=O)/C=C/c1ccccc1C(F)(F)F`: in assay [2], the pIC50 was 4.44. For `O=C(O)[C@@H]1Cc2cc(I)c(OCc3cccc(C(F)(F)F)c3)c(I)c2CN1C(=O)/C=C/c1ccc(Cl)cc1`, the inhibition in assay [1] turned out to be 22%. In the case of `N#C/C(=C\c1ccccc1)C(=O)N1Cc2c(cc(I)c(OCCCCl)c2I)C[C@H]1C(=O)O`, the inhibition in assay [1] was 11%.

The compound `O=C(O)[C@@H]1Cc2cc(I)c(OCc3cccc(C(F)(F)F)c3)c(I)c2CN1C(=O)/C=C/c1ccc(Cl)c(Cl)c1` showed a pIC50 in assay [2] of 4.12. Still for that read-out and setting: then `O=C(O)[C@@H]1Cc2cc(I)c(OCc3ccc(Cl)cc3Cl)c(I)c2CN1C(=O)/C=C/c1cc(Cl)cc(Cl)c1`, with 4.64.

A word on the inhibition: it is the change of the read-out against control, counted positive when it falls. By pIC50 is commonly meant the negative decadic logarithm of the IC50, by convention in mol/L. A low value points to a large IC50.

The values above are taken from ChEMBL document CHEMBL1133317, “The solid phase synthesis of tetrahydroisoquinolines having cdc25B inhibitory activity” (Bioorg Med Chem Lett, 2000).
